Source: US10913757B2, “Hydroxycinnamic derivatives, methods and uses thereof” (UNIVERSIDADE DO PORTO, priority 2016, dated 2021)
Marks after values point to notes of the source that are not given here.

Columns and labels:
[1] = DPPH radical scavenging activity (TAC assay); assay type: biochemical; details: ethanol, absorbance 515 nm
Excerpt: (§1) In an embodiment, the AntiOxCINs antioxidant ranking activity hierarchy was established by in vitro non-cell methods. The selected total antioxidant capacity (TAC) assays (DPPH, ABTS and GO) involved the spectrophotometric measurement of the radical absorbance decrease as a result of an in situ radical deactivation by an antioxidant. Compounds with higher antioxidant activity display lower IC50 values. […] This decrease was attenuated/ameliorated by the increment of the spacer length and/or the introduction of additional hydroxyl group in the aromatic ring.
(§2) The radical scavenging activity of AntiOxCINs was evaluated by means of total antioxidant capacity assays based on DPPH., ABTS.^+ and GO. radicals. All these methods involved the spectrophotometric measurement of the absorbance decrease resulting from radical (DPPH., ABTS.^+ or GO.) deactivation with an antioxidant. The results were expressed in IC50, which is defined as the minimum antioxidant concentration necessary to reduce the amount of radical by 50%. Antioxidant assays were performed in a multiplate reader (Powerwave XS Microplate Reader) of Bio-Tech instruments.
In an embodiment, the DPPH. radical scavenging activity was performed as follows: solutions of the test compounds with increasing concentrations (range between 0 μM and 500 μM) were prepared in ethanol. A DPPH′ ethanolic solution (6.85 mM) was also prepared and then diluted to reach the absorbance of 0.72±0.02 at 515 nm. Each compound solution (20 μL) was added to 180 μL of DPPH′ solution in triplicate, and the absorbance at 515 nm was recorded minutely over 45 minutes. […] Dose-response curves were established for the determination of IC50 values. Data are means±SEM of three independent experiments.

[2] = ABTS radical cation scavenging activity (TAC assay); assay type: biochemical; details: ethanol
Excerpt: as §1, §2
In an embodiment, the ABTS.^+ scavenging activity was evaluated as follows: ethanolic solutions of the test compounds with increasing concentrations (range between 10 μM and 500 μM) were prepared. ABTS.^+ radical cation solution was obtained by addition of 150 mM aqueous potassium persulfate solution (163 μL) to 10 mL of 7 mM aqueous ABTS solution followed by storage in the dark at room temperature for 16 h (2.45 mM final concentration). The solution was then diluted in ethanol to reach the absorbance of 0.72±0.02. After addition of the compound (20 μL), in triplicate, to ABTS.^+ solution (180 μL) the spectrophotometric measurement was carried out each minute over 15 minutes. […] Dose-response curves were established for the determination of IC50 values. Data are means±SEM of three independent experiments.

[3] = GO radical scavenging activity (TAC assay); assay type: biochemical; details: ethanol, absorbance 428 nm
Excerpt: as §1, §2
In an embodiment, the GO′ scavenging activity was evaluated as follows: solutions of test compounds with concentrations from 5 μM to 75 μM were prepared in ethanol. An ethanolic solution of 5 mM GO′ was prepared and diluted to reach the absorbance of 1.00±0.02 at 428 nm. The addition (20 μL) in triplicate of compound solution to GO. solution (180 μL) was followed by absorbance measurement at 428 nm over 30 minutes, in the dark, at room temperature. […] Dose-response curves were established for the determination of IC50 values. Data are means±SEM of three independent experiments.

[4] = Redox properties by differential pulse and cyclic voltammetry; assay type: physicochemical
Method: In an embodiment, and as an example, AntiOxCINs redox properties were evaluated (Table 1). Redox potentials are correlated with the ability of an antioxidant to donate a hydrogen atom and/or an electron to a free radical.
However, for pyrogallol derivatives (AntiOxCIN4, AntiOxCIN5 and AntiOxCIN7), a significant decrease in redox potentials was observed (Ep=0.034-0.057 V) (Table 1).
The voltammograms presented a diffusion peak and an adsorption post-peak at a more anodic potential correspondent to the oxidation of dissolved and adsorbed forms of the compounds, respectively. The oxidation waves can be related to the oxidation process of the pyrogallol moiety. The cyclic voltammograms also show the presence of two overlapped anodic peaks. The anodic peaks appeared to correspond to irreversible processes as any distinct reduction wave was not seen on the cathodic sweep. The existence of the additional phenolic group in the pyrogallol systems, when compared with the catechol ones, seems to influence the stabilization of the semiquinone intermediate and in turn the oxidative mechanism.
(§3) In an embodiment, the electrochemical analytical data was obtained using a computer controlled potentiostat Autolab PGSTAT302N (Metrohm Autolab, Utrecht, Netherlands). Generally, cyclic voltammetry (CV) data was acquired at a scan rate of 50 mVs^−1. Differential pulse voltammetry (DPV) results were acquired at a step potential of 4 mV, pulse amplitude of 50 mV and scan rate of 8 mVs^−1. The electrochemical signals were monitored by the General Purpose Electrochemical System (GPES) version 4.9, software package. All electrochemical experiments were performed at room temperature in an electrochemical cell that was placed in a Faraday cage in order to minimize the contribution of background noise to the analytical signal.
(§4) In an embodiment, the process of evaluation of AntiOxCINs redox properties was conducted as follows: stock solutions of each compound (10 mM) were prepared by dissolving the appropriate amount in ethanol. The voltammetric working solutions were prepared in the electrochemical cell, at a final concentration of 0.1 mM. The […] supporting electrolyte was prepared by diluting […] to 100 mL. Voltammetric data was acquired in a three-electrode system consisting of a glassy carbon electrode (GCE, d=2 mm) as working electrode, a counter electrode of platinum wire and a saturated Ag/AgCl reference electrode. In an embodiment, the evaluation of AntiOxCINs lipophilic properties was performed as follows: the electrochemical cell was a four-electrode system with arrays of micro liquid-liquid interfaces (μlTIES) containing two Ag/AgCl reference electrodes and two counter electrodes of Pt, one in each phase. The microporous membrane was sealed with a fluorosilicone sealant (Dow Corning 730) onto a glass cylinder which was filled with 4.0 mL of the aqueous phase, where the aliquots of AntiOxCINs solutions were added. The membrane was then immersed into the organic phase contained in the cell. The organic phase reference solution (a 2 mM BTPPACI+2 mM NaCl aqueous solution) was mechanically stabilized The aqueous supporting electrolyte solution was a Tris-HCl buffer 10 mM pH 7.0.

[5] = Lipophilic properties by electrochemistry at ITIES (transfer potential); assay type: physicochemical; details: aqueous phase to 1,6-dichlorohexane, DPV, C=0.32 mM
Method: In an embodiment, AntiOxCINs lipophilic properties were evaluated at physiological pH by electrochemistry. The used technique is often used to mimic the transfer of ionic drugs through biological membranes as the process occurs at the interface between two immiscible electrolyte solutions (ITIES). The transfer potential (Etr) at which the ionic drug, initially present in the aqueous phase (C=0.32 mM), is transferred to the 1,6-dichlorohexane (DCH) phase is measured by differential pulse voltammetry (DPV). In the ITIES model, the transfer potential (Etr) becomes less positive with the increasing of the drug lipophilic character.
as §3, §4

[6] = test system: mouse myoblast C2C12 cells; details: cited from earlier work

CS(=O)(=O)[O-].O=C(/C=C/c1ccc(O)c(O)c1)NCC[P+](c1ccccc1)(c1ccccc1)c1ccccc1 [AntiOxCIN1, reference compound]
IC50 [1]: 35.4 µM | IC50 [2]: 33.3 µM | IC50 [3]: 4.5 µM | reversibility of the oxidation reaction ([4]; cyclic voltammetry, physiological pH): reversible reaction | Ep (redox potential) ([4]; physiological pH (7.4), voltammetry, listed as AntiOxClN1): 0.166^a) V | Etr (transfer potential) [5]: 0.572 V | protection against oxidative stress stressors (H2O2, linoleic acid-hydroperoxides) [6]: protected
